Data published in patent publication US12568967B2, “Compositions comprising pyridine carboxylate herbicides with synthetic auxin herbicides or auxin transport inhibitors” (priority 2018, dated 2026).
Values joined by “and” are separate entries in the source; they are usually repeats but may differ in a detail not shown here. Equal values may be shown once. Read-outs that look alike come from different tables or passages of the source.

Key:
[1] = tested on: Salsola kali (Russian thistle, SASKR); assay: Greenhouse postemergence trial SASKR; type: in vivo;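 also: greenhouse plants sprayed at second or third true leaf stage, injury rated by eye after 20-22 d against solvent-blank controls, 0 meaning no injury, 100 complete kill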
[2] = tested on: Echinochloa crus-galli (barnyard grass, ECHCG); assay: Greenhouse postemergence trial ECHCG; type: in vivo; details: Compound A 10 g/ha
Procedure: (§1) Seeds of the desired test plant species were planted in a 90:10% v/v (volume/volume) mixture of PRO-MIX® BX (Premier Tech Horticulture, Quakertown, PA, USA) and PROFILE® GREENS GRADE™ (Profile Products LLC, Buffalo Grove, IL, USA) planting mixture, which typically has a pH of 5.2 to 6.2 and an organic matter content of at least 50 percent, in plastic pots with a surface area of 103.2 square centimeters (cm^2). […] The plants were grown for 7-36 days (d) in a greenhouse with an approximate 14-hour (h) photo-period which was maintained at about 23° C. during the day and 22° C. during the night. Nutrients and water were added on a regular basis and supplemental lighting was provided with overhead metal halide 1000-Watt lamps as necessary. The plants were employed for testing when they reached the second or third true leaf stage.
(§2) Emulsifiable concentrates of each of each pyridine carboxylate herbicide (Compound A or Compound B) were prepared at 100 grams acid equivalent per liter (g ae/L). The emulsifiable concentrates also included a safener, cloquintocet-mexyl, at 120 grams active ingredient per liter (g ai/L), unless otherwise noted below. An aliquot of each emulsifiable concentrate was placed in a 25 mL glass vial and diluted with an aqueous mixture of 1.25% (v/v) ACTIROB® B esterified rapeseed oil (Bayer Crop Science, Research Triangle Park, NC, USA) or MSO® Concentrate with LECI-TECH® methylated soybean oil (Loveland Products, Loveland, CO, USA) to obtain concentrated stock solutions at the highest application rate for each herbicide, based upon a 12 milliliter (mL) application volume at a rate of 187 liters per hectare (L/ha). The concentrated stock solutions were further diluted with an aqueous mixture of 1.25% v/v ACTIROB® B or MSO® Concentrate with LECI-TECH® to obtain stock solutions at reduced application rates for each herbicide. Spray solutions of the herbicide combinations (Compound A or Compound B plus synthetic auxin herbicide or auxin transport inhibitor) were prepared by adding weighed amounts or aliquots of the synthetic auxin herbicide or auxin transport inhibitor to the stock solutions of Compound A or Compound B to form 12-mL spray solutions in two-way combinations.
(§3) The spray solutions were applied to the plant material with an overhead Mandel track sprayer equipped with 8002E nozzles calibrated to deliver 187 L/ha over an application area of 0.503 square meters (m^2) at a spray height of 18 inches (43 centimeters (cm)) above the average plant canopy. Control plants were sprayed in the same manner with the solvent blank. All pyridine carboxylate herbicide (component a) application rates are given as “g ae/ha” and all synthetic auxin herbicide or auxin transport inhibitor (component b) application rates are given as “g ai/ha.”
(§4) The treated plants and control plants were placed in a greenhouse as described above and watered by sub-irrigation to prevent wash-off of the test compounds. After 20-22 d, the condition of the test plants as compared with that of the control plants was determined visually and scored on a scale of 0 to 100 percent where 0 corresponds to no injury and 100 corresponds to complete kill.

[3] = tested on: Cyperus esculentus (nutsedge, CYPES); assay: Greenhouse postemergence trial CYPES; type: in vivo; details: Compound A 10 g/ha
Procedure: as §1
(§5) Emulsifiable concentrates of each of each pyridine carboxylate herbicide (Compound A or Compound B) were prepared at 100 grams acid equivalent per liter (g ae/L). The emulsifiable concentrates also included a safener, cloquintocet-mexyl, at 120 grams active ingredient per liter (g ai/L), unless otherwise noted below. An aliquot of each emulsifiable concentrate was placed in a 25 mL glass vial and diluted with an aqueous mixture of 1.25% (v/v) ACTIROB® B esterified rapeseed oil (Bayer Crop Science, Research Triangle Park, NC, USA) or MSO® Concentrate with LECI-TECH® methylated soybean oil (Loveland Products, Loveland, CO, USA) to obtain concentrated stock solutions at the highest application rate for each herbicide, based upon a 12 milliliter (mL) application volume at a rate of 187 liters per hectare (L/ha). The concentrated stock solutions were further diluted with an aqueous mixture of 1.25% v/v ACTIROB® B or MSO® Concentrate with LECI-TECH® to obtain stock solutions at reduced application rates for each herbicide. Spray solutions of the herbicide combinations (Compound A or Compound B plus synthetic auxin herbicide or auxin transport inhibitor) were prepared by adding weighed amounts or aliquots of the synthetic auxin herbicide or auxin transport inhibitor to the stock solutions of Compound A or Compound B to form 12-mL spray solutions in two-way combinations. […]
as §4

[4] = tested on: Rumex obtusifolius (broad-leaf dock, RUMOB); assay: Greenhouse postemergence trial RUMOB; type: in vivo; details: Compound A 10 g/ha
[5] = tested on: Brassica napus (winter rape, BRSNW); assay: Greenhouse postemergence trial BRSNW; type: in vivo; details: for plant injury at 10 g/ha / plant injury at 15 g/ha: Brassica napus, post-emergence
[6] = tested on: Papaver rhoeas (corn poppy), herbicide-resistant (PAPRH-R); assay: Greenhouse postemergence trial PAPRH-R; type: in vivo; details: PAPRH-R; for % visual injury, Obs: applied alone
[7] = tested on: Triticum aestivum (spring wheat, TRZAS); type: in vivo
Procedure: as §1, §2, §3, §4

[8] = tested on: Chenopodium album L. (common lambsquarters, CHEAL); assay: Greenhouse postemergence trial CHEAL; type: in vivo;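 also: greenhouse plants sprayed at second to third true leaf stage, injury rated by eye after 20-22 d versus solvent-blank sprayed controls, 0 = no injury, 100 = complete kill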
[9] = tested on: Avena fatua (wild oat, AVEFA); assay: Greenhouse postemergence trial AVEFA; type: in vivo; details: Compound A 10 g/ha
Procedure: as §1, §5, §4

[10] = tested on: Viola tricolor (wild pansy, VIOTR); assay: Greenhouse postemergence trial VIOTR;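 also: greenhouse plants sprayed at second to third true leaf stage, injury rated visually after 20-22 d against solvent-blank sprayed controls, 0 meaning no injury and 100 complete kill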
Procedure: as §1, §2, §3, §4

[11] = tested on: Stellaria media (chickweed, STEME); assay: Greenhouse postemergence trial STEME; type: in vivo; details: for % visual injury Obs: alone
[12] = tested on: Brassica napus (spring rape, BRSNN); assay: Greenhouse postemergence trial BRSNN; type: in vivo
Procedure: The plants were grown for 7-36 days (d) in a greenhouse with an approximate 14-hour (h) photo-period which was maintained at about 23° C. during the day and 22° C. during the night. Nutrients and water were added on a regular basis and supplemental lighting was provided with overhead metal halide 1000-Watt lamps as necessary. The plants were employed for testing when they reached the second or third true leaf stage.
The emulsifiable concentrates also included a safener, cloquintocet-mexyl, at 120 grams active ingredient per liter (g ai/L), unless otherwise noted below.
Control plants were sprayed in the same manner with the solvent blank. All pyridine carboxylate herbicide (component a) application rates are given as “g ae/ha” and all synthetic auxin herbicide or auxin transport inhibitor (component b) application rates are given as “g ai/ha.”
as §4

[13] = Compound A 10 g/ha, without safener
[14] = Triticum aestivum (spring wheat, TRZAS), in vivo
[15] = Viola tricolor, post-emergence, read-out: % visual injury Obs

Structure (SMILES): N#CCOC(=O)c1nc(-c2ccc3cc[nH]c3c2F)c(F)c(N)c1Cl [Compound A, cyanomethyl 4-amino-3-chloro-5-fluoro-6-(7-fluoro-1H-indol-6-yl)pyridine-2-carboxylate]
- SASKR Obs (% visual injury) ([1]; Compound A 10 g/ha): 65% and 63%
- SASKR % visual injury Obs ([1]; Compound A 10 g/ha (Table 42)): 65%
- SASKR % visual injury Obs ([1]; Compound A 10 g/ha (Table 43)): 65%
- SASKR % visual injury Obs ([1]; Compound A 10 g/ha (Table 44)): 65%
- % visual injury, Obs ([1]; SASKR, Compound A 10 g/ha): 65%
- visual injury, Obs ([1]; SASKR, Compound A 10 g/ha alone): 50%
- visual injury, Obs ([1]; SASKR, Compound A 15 g/ha alone): 50%
- % visual injury (Obs) ([1]; SASKR, alone, 10 g/ha): 63%
- % visual injury Obs ([1]; SASKR, alone, 10 g/ha): 50%
- % visual injury Obs ([1]; SASKR, alone, 15 g/ha): 50%
- % visual injury, Obs ([1]; SASKR, applied alone, 10 g/ha): 50% and 63%
- % visual injury, Obs ([1]; SASKR, applied alone, 15 g/ha): 50%
- pest or weed control at […] ([1]; Salsola kali, post-emergence, SASKR, Compound A 7.5 g/ha, read-out: % visual injury Obs): 30%
- pest or weed control at 10 g/ha ([1]; Salsola kali, post-emergence, SASKR, Compound A 10 g/ha, read-out: % visual injury Obs): 50%
- pest or weed control at 15 g/ha ([1]; Salsola kali, post-emergence, SASKR, Compound A 15 g/ha, read-out: % visual injury Obs): 50%
- ECHCG Obs (% visual injury) [2]: 78%
- ECHCG Obs (% visual injury) ([2]; without safener): 58%
- % visual injury, Obs ([2]; ECHCG): 58%
- % visual injury, Obs ([3]; CYPES): 0%
- CYPES Obs (% visual injury) ([3]; without safener): 0%
- RUMOB Obs (% visual injury) [4]: 10%
- RUMOB Obs (% visual injury) ([4]; without safener): 35%
- % visual injury, Obs ([4]; RUMOB): 35%
- visual injury, Obs ([5]; BRSNW, Compound A 10 g/ha alone): 65%
- visual injury, Obs ([5]; BRSNW, Compound A 15 g/ha alone): 80%
- % visual injury (Obs) ([5]; BRSNW, alone 10 g/ha): 68%
- plant injury at 10 g/ha ([5]; BRSNW, Compound A 10 g/ha, read-out: % visual injury Obs): 65%
- plant injury at 10 g/ha ([5]; BRSNW, Compound A 10 g/ha, read-out: % visual injury, Obs): 68%
- plant injury at 15 g/ha ([5]; BRSNW, Compound A 15 g/ha, read-out: % visual injury Obs): 80%
- plant injury at 10 g/ha ([5]; BRSNW, alone, 10 g/ha, read-out: % visual injury Obs): 65%
- plant injury at 15 g/ha ([5]; BRSNW, alone, 15 g/ha, read-out: % visual injury Obs): 80%
- plant injury at 15 g/ha ([5]; BRSNW, applied alone, 15 g/ha, read-out: % visual injury, Obs): 80%
- BRSNW Obs (% visual injury) [5, 13]: 65%
- % visual injury Obs ([6]; Compound A 10 g/ha): 90%
- visual injury, Obs ([6]; Compound A 10 g/ha alone): 90%
- visual injury, Obs ([6]; Compound A 15 g/ha alone): 100%
- % visual injury Obs ([6]; alone, 10 g/ha): 90%
- % visual injury Obs ([6]; alone, 15 g/ha): 100%
- % visual injury, Obs ([6]; 10 g/ha): 90%
- % visual injury, Obs ([6]; 15 g/ha): 100%
- pest or weed control at […] ([6]; Papaver rhoeas, post-emergence, Compound A 7.5 g/ha, read-out: % visual injury Obs): 85%
- pest or weed control at 10 g/ha ([6]; Papaver rhoeas, post-emergence, Compound A 10 g/ha, read-out: % visual injury Obs): 90%
- pest or weed control at 15 g/ha ([6]; Papaver rhoeas, post-emergence, Compound A 15 g/ha, read-out: % visual injury Obs): 100%
- TRZAS Obs (% visual injury) ([7]; Compound A 10 g/ha): 0%
- TRZAS % visual injury Obs ([7]; Compound A 10 g/ha (Table 42)): 0%
- TRZAS % visual injury Obs ([7]; Compound A 10 g/ha (Table 43)): 0%
- TRZAS % visual injury Obs ([7]; Compound A 10 g/ha (Table 44)): 0%
- % visual injury Obs ([7]; TRZAS, Compound A 10 g/ha): 0%
- % visual injury, Obs ([7]; TRZAS, Compound A 10 g/ha): 0%
- visual injury, Obs ([7]; TRZAS, Compound A 10 g/ha alone): 0%
- % visual injury Obs ([7]; TRZAS, Compound A 15 g/ha): 0%
- visual injury, Obs ([7]; TRZAS, Compound A 15 g/ha alone): 0%
- % visual injury (Obs) ([7]; TRZAS, alone 10 g/ha): 0%
- % visual injury Obs ([7]; TRZAS, alone 10 g/ha): 0%
- % visual injury Obs ([7]; TRZAS, alone, 15 g/ha): 0%
- % visual injury, Obs ([7]; TRZAS, applied alone, 10 g/ha): 0%
- % visual injury, Obs ([7]; TRZAS, applied alone, 15 g/ha): 0%
- % visual injury (crop phytotoxicity) [7, 14]: 0%
- % visual injury, Obs (crop phytotoxicity) [7, 14]: 0%
- % visual injury (crop phytotoxicity) ([7]; c1-2 Compound A 7.5/10, c3 Quinclorac 140, c4-5 A 7.5/10 + Quinclorac 140 g/ha): 0%
- % visual injury (crop phytotoxicity) ([7]; c1-3 Compound A 7.5/10/15, c4-5 Fluroxypyr-MHE 100/140, c6-8, c9-11 A 7.5/10/15 + Fluroxypyr-MHE 100, 140 g/ha): 0%
- % visual injury (crop phytotoxicity) ([7]; c1-3 Compound A 7.5/10/15, c4 Aminopyralid 5, c5-7 A 7.5/10/15 + Aminopyralid 5 g/ha): 0%
- % visual injury (crop phytotoxicity) ([7]; c1-3 Compound A 7.5/10/15, c4 Halauxifen-methyl 6, c5-7 A 7.5/10/15 + Halauxifen-methyl 6 g/ha): 0%
- % visual injury, Obs ([8]; CHEAL, Compound A 10 g/ha): 88% and 78%
- % visual injury (Obs) ([8]; CHEAL, alone 10 g/ha): 90% and 78%
- % visual injury, Obs ([8]; CHEAL, applied alone, 10 g/ha): 80%
- CHEAL Obs (% visual injury) ([8]; Compound A 10 g/ha): 88% and 90%
- CHEAL % visual injury Obs ([8]; Compound A 10 g/ha (Table 42)): 88%
- CHEAL % visual injury Obs ([8]; Compound A 10 g/ha (Table 43)): 88%
- CHEAL % visual injury Obs ([8]; Compound A 10 g/ha (Table 44)): 88%
- % visual injury, Obs ([9]; AVEFA): 0%
- AVEFA Obs (% visual injury) ([9]; without safener): 0%
- VIOTR Obs (% visual injury) ([10]; Compound A 10 g/ha): 18%
- VIOTR Obs (% visual injury) [10, 13]: 15%
- % visual injury Obs ([10]; VIOTR, Compound A 10 g/ha): 30%
- % visual injury, Obs ([10]; VIOTR, Compound A 10 g/ha): 15%
- visual injury, Obs ([10]; VIOTR, Compound A 10 g/ha alone): 30%
- visual injury, Obs ([10]; VIOTR, Compound A 15 g/ha alone): 50%
- % visual injury (Obs) ([10]; VIOTR, alone, 10 g/ha): 23%
- % visual injury Obs ([10]; VIOTR, alone, 10 g/ha): 30%
- % visual injury Obs ([10]; VIOTR, alone, 15 g/ha): 50%
- % visual injury, Obs ([10]; VIOTR, applied alone, 10 g/ha): 30%
- % visual injury, Obs ([10]; VIOTR, applied alone, 15 g/ha): 50%
- pest or weed control at 10 g/ha [10, 15]: 30%
- pest or weed control at 15 g/ha [10, 15]: 50%
- STEME Obs (% visual injury) [11, 13]: 88%
- % visual injury, Obs ([11]; STEME, Compound A 10 g/ha): 88%
- visual injury, Obs ([11]; STEME, Compound A 10 g/ha alone): 70%
- visual injury, Obs ([11]; STEME, Compound A 15 g/ha alone): 100%
- % visual injury Obs ([11]; STEME, 10 g/ha): 70%
- % visual injury Obs ([11]; STEME, 15 g/ha): 100%
- % visual injury, Obs ([11]; STEME, applied alone, 10 g/ha): 70%
- % visual injury, Obs ([11]; STEME, applied alone, 15 g/ha): 100%
- pest or weed control at […] ([11]; Stellaria media, post-emergence, STEME, Compound A 7.5 g/ha, read-out: % visual injury Obs): 65%
- pest or weed control at 10 g/ha ([11]; Stellaria media, post-emergence, STEME, Compound A 10 g/ha, read-out: % visual injury Obs): 70%
- pest or weed control at 15 g/ha ([11]; Stellaria media, post-emergence, STEME, Compound A 15 g/ha, read-out: % visual injury Obs): 100%
- % visual injury, Obs ([12]; BRSNN, Compound A 10 g/ha): 55%
- % visual injury (Obs) ([12]; BRSNN, alone 10 g/ha): 73% and 70%
- BRSNN Obs (% visual injury) ([12]; Compound A 10 g/ha): 55% and 83% and 70%
- BRSNN % visual injury Obs ([12]; Compound A 10 g/ha (Table 42)): 55%
- BRSNN % visual injury Obs ([12]; Compound A 10 g/ha (Table 43)): 55%
- BRSNN % visual injury Obs ([12]; Compound A 10 g/ha (Table 44)): 55%
